Source: ChEMBL document CHEMBL1909046, “DrugMatrix in vitro pharmacology data”

Legend:
[1] = biological target: T1, Type-2 angiotensin II receptor (Homo sapiens, UniProt P50052); type: cell-based; conditions: cho-k1; note: in other assays of this panel Not Active means under 50% inhibition at 10 µM
T1 sequence (P50052 whole entry): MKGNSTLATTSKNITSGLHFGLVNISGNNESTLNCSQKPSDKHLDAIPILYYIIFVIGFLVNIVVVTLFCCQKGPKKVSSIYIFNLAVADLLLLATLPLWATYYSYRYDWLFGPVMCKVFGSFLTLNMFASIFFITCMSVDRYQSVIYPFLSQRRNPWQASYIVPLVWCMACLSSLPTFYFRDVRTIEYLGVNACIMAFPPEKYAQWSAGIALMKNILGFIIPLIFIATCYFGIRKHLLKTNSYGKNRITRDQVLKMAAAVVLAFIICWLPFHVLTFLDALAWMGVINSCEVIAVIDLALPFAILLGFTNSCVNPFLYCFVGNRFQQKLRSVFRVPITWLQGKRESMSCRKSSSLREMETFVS

[2] = biological target: T2, Vasoactive intestinal polypeptide receptor 1 (Homo sapiens, UniProt P32241); type: cell membranes, Membrane; conditions: ht-29; note: in other assays of this panel Not Active means under 50% inhibition at 10 µM
T2 sequence (P32241 whole entry): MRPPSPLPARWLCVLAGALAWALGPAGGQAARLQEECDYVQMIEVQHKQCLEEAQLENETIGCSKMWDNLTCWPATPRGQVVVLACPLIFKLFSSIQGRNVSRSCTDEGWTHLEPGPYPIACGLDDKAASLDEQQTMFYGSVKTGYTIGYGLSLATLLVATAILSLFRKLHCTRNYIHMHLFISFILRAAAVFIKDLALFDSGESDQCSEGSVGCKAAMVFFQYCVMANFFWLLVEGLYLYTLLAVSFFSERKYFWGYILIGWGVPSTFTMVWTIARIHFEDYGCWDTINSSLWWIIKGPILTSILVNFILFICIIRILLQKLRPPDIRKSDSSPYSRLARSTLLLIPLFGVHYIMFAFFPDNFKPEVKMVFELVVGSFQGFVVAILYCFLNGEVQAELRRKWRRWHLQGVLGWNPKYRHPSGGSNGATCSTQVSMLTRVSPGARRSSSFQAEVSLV

[3] = biological target: T3, 3-hydroxy-3-methylglutaryl-coenzyme A reductase (Homo sapiens, UniProt P04035); set-up: species or system Escherichia coli;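 note: enzyme inhibition assay of HMG-CoA reductase using radiolabeled [14C]HMG-CoA as substrate; in other assays of this panel Not Active means under 50% inhibition at 10 µM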
T3 sequence (P04035 whole entry): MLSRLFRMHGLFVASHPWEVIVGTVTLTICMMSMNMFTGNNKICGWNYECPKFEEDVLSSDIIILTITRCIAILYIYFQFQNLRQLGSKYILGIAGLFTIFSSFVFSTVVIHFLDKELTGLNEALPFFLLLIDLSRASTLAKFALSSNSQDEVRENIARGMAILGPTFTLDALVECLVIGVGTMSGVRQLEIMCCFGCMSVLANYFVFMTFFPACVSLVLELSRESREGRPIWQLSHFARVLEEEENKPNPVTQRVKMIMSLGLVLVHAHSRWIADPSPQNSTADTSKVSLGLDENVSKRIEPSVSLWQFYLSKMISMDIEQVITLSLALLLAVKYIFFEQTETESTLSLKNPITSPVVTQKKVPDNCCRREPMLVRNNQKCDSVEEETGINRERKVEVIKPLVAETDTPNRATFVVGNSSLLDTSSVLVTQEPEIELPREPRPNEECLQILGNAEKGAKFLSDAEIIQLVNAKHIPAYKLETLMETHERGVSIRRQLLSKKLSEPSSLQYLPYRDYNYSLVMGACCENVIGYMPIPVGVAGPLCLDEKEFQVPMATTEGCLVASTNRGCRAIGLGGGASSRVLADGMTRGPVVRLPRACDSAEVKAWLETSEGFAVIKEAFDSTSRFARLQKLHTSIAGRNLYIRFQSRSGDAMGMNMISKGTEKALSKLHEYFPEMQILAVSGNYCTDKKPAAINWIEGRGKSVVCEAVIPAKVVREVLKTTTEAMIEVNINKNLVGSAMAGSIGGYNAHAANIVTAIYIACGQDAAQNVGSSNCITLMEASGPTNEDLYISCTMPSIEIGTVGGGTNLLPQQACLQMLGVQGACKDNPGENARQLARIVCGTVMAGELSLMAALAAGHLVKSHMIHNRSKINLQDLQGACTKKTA

[4] = biological target: T4, Cysteinyl leukotriene receptor 1 (Homo sapiens, UniProt Q9Y271); type: cell membranes, CHO-K1, Membrane; conditions: cho-k1; note: in other assays of this panel Not Active means under 50% inhibition at 10 µM
T4 sequence (Q9Y271 whole entry): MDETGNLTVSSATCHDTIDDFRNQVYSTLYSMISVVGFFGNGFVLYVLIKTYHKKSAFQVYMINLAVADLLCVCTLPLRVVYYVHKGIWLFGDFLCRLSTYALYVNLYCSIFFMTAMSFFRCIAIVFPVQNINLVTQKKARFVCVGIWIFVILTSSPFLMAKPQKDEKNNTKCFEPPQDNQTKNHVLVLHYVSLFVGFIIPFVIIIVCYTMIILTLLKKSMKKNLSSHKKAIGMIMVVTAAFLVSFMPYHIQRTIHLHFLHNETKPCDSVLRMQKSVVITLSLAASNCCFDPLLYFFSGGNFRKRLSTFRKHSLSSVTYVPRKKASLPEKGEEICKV

[5] = biological target: Platelet-activating factor receptor (Homo sapiens, UniProt P25105); type: tissue-based; note: in other assays of this panel Not Active means under 50% inhibition at 10 µM
[6] = biological target: T5, Progesterone receptor (Bos taurus, UniProt Q690N0); experiment: DRUGMATRIX: Progesterone radioligand binding (ligand: [3H] R-5020); type: tissue-based, Uterus; conditions: Not Active = under 50% inhibition at 10 µM
T5 sequence (Q690N0 whole entry): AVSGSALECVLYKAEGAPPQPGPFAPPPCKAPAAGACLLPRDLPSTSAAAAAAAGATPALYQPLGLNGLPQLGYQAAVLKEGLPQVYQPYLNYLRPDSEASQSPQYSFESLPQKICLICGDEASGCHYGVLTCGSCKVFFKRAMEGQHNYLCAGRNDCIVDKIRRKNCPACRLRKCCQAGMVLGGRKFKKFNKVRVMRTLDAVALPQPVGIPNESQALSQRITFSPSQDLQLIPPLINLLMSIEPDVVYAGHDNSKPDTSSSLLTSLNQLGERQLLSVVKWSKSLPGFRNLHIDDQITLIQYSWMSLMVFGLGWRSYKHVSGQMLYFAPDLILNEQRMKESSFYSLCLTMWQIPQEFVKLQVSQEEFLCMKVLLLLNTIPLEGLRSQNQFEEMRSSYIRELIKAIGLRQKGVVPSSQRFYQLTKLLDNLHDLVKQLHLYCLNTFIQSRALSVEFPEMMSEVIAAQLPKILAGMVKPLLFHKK

[7] = biological target: Mitogen-activated protein kinase 1 (Homo sapiens, UniProt P28482); experiment: DRUGMATRIX: Protein Serine/Threonine Kinase, ERK2 enzyme inhibition (substrate: Myelin Basic Protein); set-up: species or system Escherichia coli; conditions: Not Active = under 50% inhibition at 10 µM

Measured: IC50

Sequence of Platelet-activating factor receptor (P25105 whole entry): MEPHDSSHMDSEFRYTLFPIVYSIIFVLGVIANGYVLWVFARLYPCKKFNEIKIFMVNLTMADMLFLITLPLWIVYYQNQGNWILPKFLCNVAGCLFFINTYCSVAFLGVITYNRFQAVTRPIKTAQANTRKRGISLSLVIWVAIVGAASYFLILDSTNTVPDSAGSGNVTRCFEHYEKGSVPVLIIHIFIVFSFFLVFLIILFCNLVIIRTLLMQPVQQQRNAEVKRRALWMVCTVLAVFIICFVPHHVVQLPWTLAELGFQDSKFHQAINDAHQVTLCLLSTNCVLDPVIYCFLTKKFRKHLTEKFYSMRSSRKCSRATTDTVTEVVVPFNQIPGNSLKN
Sequence of Mitogen-activated protein kinase 1 (P28482 whole entry): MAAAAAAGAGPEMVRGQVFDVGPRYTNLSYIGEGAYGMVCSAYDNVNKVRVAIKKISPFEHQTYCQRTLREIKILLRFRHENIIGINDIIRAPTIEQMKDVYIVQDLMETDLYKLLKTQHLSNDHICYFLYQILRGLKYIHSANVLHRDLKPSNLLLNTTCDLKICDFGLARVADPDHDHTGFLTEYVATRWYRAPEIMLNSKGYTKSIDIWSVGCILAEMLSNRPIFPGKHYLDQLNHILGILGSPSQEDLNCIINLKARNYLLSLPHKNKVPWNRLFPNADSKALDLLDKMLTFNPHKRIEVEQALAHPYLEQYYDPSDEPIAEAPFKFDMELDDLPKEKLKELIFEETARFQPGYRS

NS(=O)(=O)c1cc(C(=O)O)c(NCc2ccco2)cc1Cl [FUROSEMIDE]
Not Active: all assays above
